Patent publication US12391697B2, “Condensed bi-heterocycles as inhibiting agents for Bruton's tyrosine kinase” (BIOGEN MA INC., priority 2019, dated 2025)
Structures can show the parent of a compound that is named as a salt.

What follows are compounds tested against BTK (Homo sapiens (Human), UniProt Q06187) (assay: In Vitro BTK Kinase Assay: Btk-PolyGAT-LS Assay). Details: active BTK enzyme 0.25 nM, ATP 10 μM, polyGAT 100 nM, 30 minutes.
Chain of BTK (Q06187 whole entry): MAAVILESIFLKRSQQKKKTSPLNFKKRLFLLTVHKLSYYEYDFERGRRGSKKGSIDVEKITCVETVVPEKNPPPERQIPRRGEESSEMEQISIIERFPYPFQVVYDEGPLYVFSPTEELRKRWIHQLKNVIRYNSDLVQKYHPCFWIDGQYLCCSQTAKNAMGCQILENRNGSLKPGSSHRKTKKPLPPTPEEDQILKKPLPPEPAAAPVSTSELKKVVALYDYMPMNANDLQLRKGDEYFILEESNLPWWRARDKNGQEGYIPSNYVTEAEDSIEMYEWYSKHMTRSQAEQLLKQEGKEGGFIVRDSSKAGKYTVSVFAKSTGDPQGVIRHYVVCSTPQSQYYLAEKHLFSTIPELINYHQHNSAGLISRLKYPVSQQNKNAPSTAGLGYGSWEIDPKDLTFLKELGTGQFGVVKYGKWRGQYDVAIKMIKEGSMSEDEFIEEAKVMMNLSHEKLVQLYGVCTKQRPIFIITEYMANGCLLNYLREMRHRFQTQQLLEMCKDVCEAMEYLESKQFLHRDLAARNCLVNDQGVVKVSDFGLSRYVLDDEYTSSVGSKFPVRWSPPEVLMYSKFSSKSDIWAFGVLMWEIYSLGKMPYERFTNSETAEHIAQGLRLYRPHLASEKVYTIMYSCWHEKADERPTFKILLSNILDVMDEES
Type: biochemical
In short: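 Recombinant BTK (0.25 nM) phosphorylating 100 nM polyGAT at 10 μM ATP in Tris-HCl pH 7.5 buffer with MgCl2, DTT, Triton X-100 and casein, 30 min, then EDTA stop.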
With `Cc1cc(-c2ncnn3cc(N4CCN(C)[C@@H](C)C4)cc23)ccc1CNC(=O)c1nc(C(C)(C)C)no1` (single isomer, unassigned) [Example 28] the IC50 was ≤ 1 nM. `COC1CN(c2cc3c(-c4ccc(CNC(=O)c5noc(C(C)(C)C)n5)c(C)c4)ncnn3c2)C1` [Example 8, 5-(tert-butyl)-N-(4-(6-(3-methoxyazetidin-1-yl)pyrrolo[2,1-f][1,2,4]triazin-4-yl)-2-methylbenzyl)-1,2,4-oxadiazole-3-carboxamide] was tested, and the IC50 was ≤ 1 nM. In the case of `Cc1cc(-c2ncnn3cc(N4CCO[C@H](C)C4)cc23)ccc1CNC(=O)c1noc(C(C)(C)C)n1` (single isomer, unassigned) [Example 30], the IC50 is reported as ≤ 1 nM. For `Cc1c(CNC(=O)c2noc(C(C)(C)CF)n2)ccc(-c2ncnn3cc(-c4cnn(C)c4)cc23)c1F` [Example 33, N-(3-fluoro-2-methyl-4-(6-(1-methyl-1H-pyrazol-4-yl)pyrrolo[2,1-f][1,2,4]triazin-4-yl)benzyl)-5-(1-fluoro-2-methylpropan-2-yl)-1,2,4-oxadiazole-3-carboxamide], the IC50 was ≤ 1 nM. `CC(C)(C)c1nc(C(=O)NCc2ccc(-c3ncnn4cc(N5CCOCC5)cc34)cc2Cl)no1` [Example 15, 5-(tert-butyl)-N-(2-chloro-4-(6-morpholinopyrrolo[2,1-f][1,2,4]triazin-4-yl)benzyl)-1,2,4-oxadiazole-3-carboxamide trifluoroacetate] was tested, and the IC50 was ≤ 1 nM. Compound `COc1cc(-c2ncnn3cc(-c4cnn(C)c4)cc23)ccc1CNC(=O)c1nnc(C(C)(C)C)o1` [Example 197] has an IC50 of 1 to 10 nM. Work on `COc1c(CNC(=O)c2ccn(C(C)(C)C)n2)ccc(-c2ncnn3cc(N4CCOCC4)cc23)c1F` [Example 202] yielded an IC50 of 1 to 10 nM. `Cn1cc(-c2cc3c(-c4ccc(CNC(=O)c5cn(C(C)(C)C)nn5)c(C(F)F)c4F)ncnn3c2)cn1` [Example 195] was tested, and the IC50 was 1 to 10 nM. In the case of `Cc1c(CNC(=O)c2cn(C(C)(C)C)nn2)ccc(-c2ncnn3cc(N4CCOCC4)cc23)c1F` [Example 87], the IC50 is reported as ≤ 1 nM. For `Cc1cc(-c2ncnn3cc(N4CCN(C)C(C)C4)cc23)ccc1CNC(=O)c1noc(C(C)(C)C)n1` (centres unmarked) [Example 96], the IC50 was ≤ 1 nM. For `CC(C)(C)c1noc(C(=O)NCc2ccc(-c3ncnn4cccc34)c(F)c2C2CC2)n1` [Example 153], the IC50 was 1 to 10 nM. In the case of `Cn1cc(-c2cc3c(-c4ccc(CNC(=O)c5noc(C(C)(C)C)n5)c(CC(F)F)c4)ncnn3c2)cn1` [Example 231], the IC50 is reported as ≤ 1 nM. For `Cc1cc(-c2ncnn3cc(-c4cnn(CC(F)F)c4)cc23)ccc1CNC(=O)c1cnn(C(C)(C)C)c1` [Example 145], the IC50 was ≤ 1 nM. For `C=CC(=O)n1cc(-c2cc3c(-c4ccc(CNC(=O)c5noc(C(C)(C)C)n5)c(C)c4)ncnn3c2)cn1` [Example 59, N-(4-(6-(1-acryloyl-1H-pyrazol-4-yl)pyrrolo[2,1-f][1,2,4]triazin-4-yl)-2-methylbenzyl)-5-(tert-butyl)-1,2,4-oxadiazole-3-carboxamide], the IC50 was ≤ 1 nM. With `Cn1cc(-c2cc3c(-c4ccc(CNC(=O)c5nnc(C(C)(C)C)o5)c(C(F)F)c4F)ncnn3c2)cn1` [Example 196] the IC50 was ≤ 1 nM. With `Cc1cc(-c2ncnn3cc(N4CCN(C)CC4)cc23)ccc1CNC(=O)c1nc(C(C)(C)C)no1` [Example 69, 3-(tert-butyl)-N-(2-methyl-4-(6-(4-methylpiperazin-1-yl)pyrrolo[2,1-f][1,2,4]triazin-4-yl)benzyl)-1,2,4-oxadiazole-5-carboxamide] the IC50 was ≤ 1 nM. With `Cc1cc(-c2ncnn3cc(-c4cnn(C5CC5)c4)cc23)ccc1CNC(=O)c1noc(C(C)(C)C)n1` [Example 237] the IC50 was ≤ 1 nM. In the case of `CC(C)(C)c1noc(C(=O)NCc2ccc(-c3ncnn4cc(N5CCOCC5)cc34)cc2C(F)F)n1` [Example 192], the IC50 is reported as ≤ 1 nM. In the case of `CC(C)(C)c1nc(C(=O)NCc2ccc(-c3ncnn4cc(N5CCOCC5)cc34)c(F)c2Cl)no1` [Example 154], the IC50 is reported as ≤ 1 nM. With `Cc1cc(-c2c(C#N)cnn3cccc23)ccc1CNC(=O)c1noc(C(C)(C)C)n1` [Example 53] the IC50 was > 10 nM. In the case of `Cc1cc(-c2ncnn3cc(-c4cnsc4)cc23)ccc1CNC(=O)c1noc(C(C)(C)C)n1` [Example 172], the IC50 is reported as > 10 nM. For `Cc1cc(-c2ncnn3cc(-c4cccnc4)cc23)ccc1CNC(=O)c1noc(C(C)(C)C)n1` [Example 169], the IC50 was ≤ 1 nM. `Cc1cc(-c2ncnn3cncc23)ccc1CNC(=O)c1noc(C(C)(C)C)n1` [Example 54] gave an IC50 of 1 to 10 nM. For `Cn1cc(-c2cc3c(-c4ccc(CNC(=O)c5nc(C(C)(C)C)no5)c(CC(F)F)c4)ncnn3c2)cn1` [Example 207], the IC50 was ≤ 1 nM. Work on `Cc1cc(-c2ncnn3ccc(F)c23)ccc1CNC(=O)c1noc(C(C)(C)C)n1` [Example 19, 5-(tert-butyl)-N-(4-(5-fluoropyrrolo[2,1-f][1,2,4]triazin-4-yl)-2-methylbenzyl)-1,2,4-oxadiazole-3-carboxamide trifluoroacetate] yielded an IC50 of 1 to 10 nM. In the case of `Cn1cc(-c2cc3c(-c4ccc(CNC(=O)c5nc(C(C)(C)C)no5)c(C(F)F)c4)ncnn3c2)cn1` [Example 190], the IC50 is reported as ≤ 1 nM. `Cc1cc(-c2ncnn3cc(N4CCN(C)[C@@H](C)C4)cc23)ccc1CNC(=O)c1noc(C(C)(C)C)n1` (single isomer, unassigned) [Example 116] was tested, and the IC50 was ≤ 1 nM. `CC(C)(C)n1cc(C(=O)NCc2ccc(-c3ncnn4cc(N5CCOCC5)cc34)cc2C(F)(F)F)nn1` [Example 187] was tested, and the IC50 was ≤ 1 nM. For `Cc1cc(-c2ncnn3cc(N4CCn5ccnc5C4)cc23)ccc1CNC(=O)c1nc(C(C)(C)C)no1` [Example 121], the IC50 was ≤ 1 nM. With `Cc1cc(-c2ncnn3cc(N4CCOCC4)cc23)ccc1CNC(=O)c1coc(C(C)(C)C)n1` [Example 176] the IC50 was 1 to 10 nM. For `C#Cc1cc2c(-c3ccc(CNC(=O)c4noc(C(C)(C)C)n4)c(C)c3)ncnn2c1` [Example 76, 5-(tert-butyl)-N-(4-(6-ethynylpyrrolo[2,1-f][1,2,4]triazin-4-yl)-2-methylbenzyl)-1,2,4-oxadiazole-3-carboxamide trifluoroacetate], the IC50 was 1 to 10 nM. In the case of `Cn1cc(-c2cc3c(-c4ccc(CNC(=O)c5nc(C(C)(C)C)no5)c(C(F)F)c4F)ncnn3c2)cn1` [Example 194], the IC50 is reported as ≤ 1 nM. In the case of `CC(C)(C)c1nc(C(=O)NCc2cc(F)c(-c3ncnn4cccc34)cc2Cl)co1` [Example 134], the IC50 is reported as > 10 nM. Compound `Cc1cc(-c2ncnn3cccc23)ccc1CNC(=O)c1noc(C(C)(C)C)n1` [Example 151] has an IC50 of 1 to 10 nM. In the case of `Cc1cc(-c2ncnn3cnc(C)c23)ccc1CNC(=O)c1noc(C(C)(C)C)n1` [Example 48], the IC50 is reported as 1 to 10 nM. With `Cc1cc(-c2ncnn3cc(N4CCO[C@@H](C)C4)cc23)ccc1CNC(=O)c1noc(C(C)(C)C)n1` (single isomer, unassigned) [Example 29] the IC50 was ≤ 1 nM. With `Cc1cc(-c2ncnn3cc(-c4ccccn4)cc23)ccc1CNC(=O)c1noc(C(C)(C)C)n1` [Example 230] the IC50 was ≤ 1 nM. For `Cc1cc(-c2ncnn3cc(-c4cnco4)cc23)ccc1CNC(=O)c1noc(C(C)(C)C)n1` [Example 110], the IC50 was ≤ 1 nM. `Cn1cc(-c2cc3c(-c4ccc(CNC(=O)c5cnn(C(C)(C)C)c5)c(C(F)(F)F)c4)ncnn3c2)cn1` [Example 61, 1-(tert-butyl)-N-(4-(6-(1-methyl-1H-pyrazol-4-yl)pyrrolo[2,1-f][1,2,4]triazin-4-yl)-2-(trifluoromethyl)benzyl)-1H-pyrazole-4-carboxamide] was tested, and the IC50 was ≤ 1 nM.

What follows are compounds tested on CD69 expression on CD19+ B cells in whole blood (assay: In Vitro Whole Blood CD69 Assay). Details: Homo sapiens, B-cell, human heparinized whole blood, anti-human IgD stimulation, percentage of CD19+ B cells expressing CD69; read-out: IC50.
Type: cell-based, Human
Protocol: In Vitro Whole Blood CD69 Assay
Human heparinized venous blood from health donors was aliquoted into 96-well plate and “spiked” with serial dilutions of formula I compounds in DMSO or with DMSO without drug. The final concentration of DMSO in all wells was 0.1%. The plate was incubated at 37° C. for 30 min. Drug-containing samples were stimulated with 0.1 μg/mL mouse anti-human IgD-dextran (1A62) or 20 μg/mL polyclonal rabbit F(ab′)2 anti-human IgD. Phosphate-buffered saline (PBS) was added to the negative control unstimulated sample and the plates were incubated overnight (18 to 22 hours) at 37° C. Cells were stained with fluorochrome-conjugated anti-CD19 and anti-CD69 antibodies. Lyse/fix solution was used to remove red blood cells by hypotonic lysis and to fix the remaining cells, which were then analyzed by flow cytometry. CD19+ B cells were gated and analyzed for CD69 expression. The percentage of B cells expressing CD69 was plotted versus the log 10 of the concentration of the drug and the best-fit curves (variable Hill slope) were generated to obtain the IC50 value.
`Cc1cc(-c2ncnn3cc(N4CCN(C)[C@@H](C)C4)cc23)ccc1CNC(=O)c1nc(C(C)(C)C)no1` (single isomer, unassigned) [Example 28] was tested, and the IC50 was 100 to 1000 nM. With `COC1CN(c2cc3c(-c4ccc(CNC(=O)c5noc(C(C)(C)C)n5)c(C)c4)ncnn3c2)C1` [Example 8, 5-(tert-butyl)-N-(4-(6-(3-methoxyazetidin-1-yl)pyrrolo[2,1-f][1,2,4]triazin-4-yl)-2-methylbenzyl)-1,2,4-oxadiazole-3-carboxamide] the IC50 was 100 to 1000 nM. Compound `Cc1cc(-c2ncnn3cc(N4CCO[C@H](C)C4)cc23)ccc1CNC(=O)c1noc(C(C)(C)C)n1` (single isomer, unassigned) [Example 30] has an IC50 of 100 to 1000 nM. With `Cc1c(CNC(=O)c2noc(C(C)(C)CF)n2)ccc(-c2ncnn3cc(-c4cnn(C)c4)cc23)c1F` [Example 33, N-(3-fluoro-2-methyl-4-(6-(1-methyl-1H-pyrazol-4-yl)pyrrolo[2,1-f][1,2,4]triazin-4-yl)benzyl)-5-(1-fluoro-2-methylpropan-2-yl)-1,2,4-oxadiazole-3-carboxamide] the IC50 was 100 to 1000 nM. `CC(C)(C)c1nc(C(=O)NCc2ccc(-c3ncnn4cc(N5CCOCC5)cc34)cc2Cl)no1` [Example 15, 5-(tert-butyl)-N-(2-chloro-4-(6-morpholinopyrrolo[2,1-f][1,2,4]triazin-4-yl)benzyl)-1,2,4-oxadiazole-3-carboxamide trifluoroacetate] showed an IC50 of 100 to 1000 nM.
